Columns and labels:
Type in all cases: in vivo
apple (cv Empire) = test: Photosynthesis of field-grown apple after LCO spray
Method: (§1) These experiments were conducted at the horticultural research facility of McGill University, Ste-Anne-de-Bellevue, Quebec, Canada during July 2000. LCO of different concentrations (10^−8, and 10^−10M) were prepared as described above. Branches of apple (cv Empire) and Grapes (cv De Chaunac) were sprayed with LCO and the photosynthesis was observed every 24 h for five days with a Li-Cor 6400 portable photosynthesis system (Li-Cor Inc., USA). Each treatment was applied to three branches from the same plant. Care was taken to ensure that the branches were on the same level and orientation. Part of each branch was sprayed with LCO and the remaining part served as a control. The control portion of the branch was sprayed with distilled water containing the same amount of Tween 20 as the LCO treatment solution. Observations were taken on 15 leaves per replicate for each treatment. For both apple and grape the entire procedure was repeated twice on two different plants.

Grapes (cv De Chaunac) = test: Photosynthesis of field-grown grape after LCO spray
Method: as §1

corn (Pioneer 3921) = test: Photosynthesis of field-grown corn after LCO spray
Method: Single row corn plots (Pioneer 3921) were established during the 1999 and 2000 cropping seasons. The rows were 75 cm apart and their was an average of 20 cm between plants. The plants were sprayed at 40 DAP. Photosynthetic rates were recorded each day for 5 days after spray application. However, multiple sprays of LCO on corn were not possible due to limitations of LCO supplies, and because only single row plots were used yields were not recorded. As with the indoor experiments, photosynthetic readings were taken every day for five days after the application of LCO. For soybean additional developmental and agronomic data were collected. The first harvest was conducted at 25 days after the first spray treatment. Five plants were harvested from each plot and the following growth variables were analyzed: plant height, number of branches, number of leaves, leaf area, number of flower clusters, number of pods, number of nodules, dry weights of leaves, stem and roots. The final harvest was conducted after physiological maturity of the plants (Fehr et al., 1971); at this time the remaining fifteen treated plants from each plot were harvested and data on number of branches, number of pods, number of seeds and grain yield per plant was collected.

In the case of Nod Bj V (C18:1, MeFeu), the Ci (apple (cv Empire)) is reported as “without any effect”, the stomatal conductance (apple (cv Empire)) is reported as “increases” and the transpiration (apple (cv Empire)) is reported as “increased”. For the same substance, the photosynthetic rate (apple (cv Empire); 10^−8 M LCO, five days after treatment) was 14.1 μmol CO2 m^−2s^−1, the stomatal conductance (Grapes (cv De Chaunac); 10^−10 M, three days after treatment) was “increase” and the photosynthetic rates (Grapes (cv De Chaunac); greatest three days after treatment with 10^−10 M) was “increases”. For the same substance, the Ci (corn (Pioneer 3921); field grown plants) was “no such effect” and the “increase of photosynthetic rate, maximum” value (corn (Pioneer 3921); field, two days after treatment application) was “approximately 10%”.
